The record followed here is patent US20220289732A1, “HETEROCYCLIC WDR5 INHIBITORS AS ANTI-CANCER COMPOUNDS” (NOVARTIS AG, priority 2019, published 2022).

Like-named read-outs stand apart in the source and are kept apart here.

The target of one experiment is WDR5 (Homo sapiens, UniProt P61964). The experiment can be described thus: WDR5 HTRF binding assay. The conditions noted are these: read-out: (a) WDR5 HTRF Pep Val v.1[Inhibitor/IC50]Qualified AC50. Put shortly:
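In this HTRF displacement format, biotinylated MLL1 WIN peptide (3762-3773, 20 nM) binds WDR5 (6 nM) in 25 mM Hepes pH 7.5 with 100 mM NaCl, 2 mM DTT and 0.1% BSA for 20 min at rt. Detection used streptavidin-APC/anti-His-Eu for 1 hr. IC50 came from dose-response fits of normalized signal; 15 nM biotin-PEG-His peptide served as counter assay.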

The target in experiment [1] is wild type MLL1 four-member complex (MLL1-4C) (Homo sapiens, UniProt P61964). Briefly: MLL1 LC-MS assay (SAH production). It is filed as biochemical. Conditions: read-out: (b) MLL LCMS Peptide Val.v.1 Qualified AC50. A digest of the protocol: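 SAH formation, measured by LC-MS/MS after a TFA quench containing d4-SAH, was normalised to no-compound and no-enzyme controls and fitted to a dose-response curve for IC50. Reactions ran 120 min at rt (pH 8.0 Tris buffer) with final 30 nM MLL1 four-member complex, 2.5 μM SAM and 10 μM biotinylated H3[1-21] peptide, after a 20-min enzyme/SAM-compound preincubation.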

The test system of a further experiment is MV4-11 cells. Briefly: MV4-11 6-day cell growth CTG (CellTiter-Glo) assay. In kind it is cell-based. Conditions: 6 days, read-out: (c) MLL/WDR5 cell proliferation assay//MLL/WDR5 proliferation MV4:11 Qualified AC50. Put shortly:
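IC50 comes from a dose-response fit of % inhibition relative to DMSO controls, with viable cells measured by CellTiter-Glo luminescence. Compounds were tested over 12 points (1:3, starting at 50 μM final) on MV4-11 cells plated at 300/well and grown 6 days.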
(In general: Cellular ATP, detected with luciferase, serves as a proxy for viable cell number.)

Turning to `CNc1nccn1Cc1cc(CN2CC(F)C2)c2c(c1)C(=O)N([C@@H](C)c1cnc(F)c(OC)c1)CC2` [Example 43, (S)-2-(1-(6-fluoro-5-methoxypyridin-3-yl)ethyl)-5-((3-fluoroazetidin-1-yl)methyl)-7-((2-(methylamino)-1H-imidazol-1-yl)methyl)-3,4-dihydroisoquinolin-1(2H)-one], at WDR5, the IC50 is 10 to 1000 nM. Moreover, the AC50 in experiment [1] fell in the range of 10 to 1000 nM; with MV4-11 cells (Homo sapiens, MV4-11, 144 h), 10 to 1000 nM.

Turning to `CCOc1cc(CN2CCc3c(CN(C)C4CC4)cc(Cn4ccnc4NC)cc3C2=O)cnc1C#N` [Example 26, 5-((5-((cyclopropyl(methyl)amino)methyl)-7-((2-(methylamino)-1H-imidazol-1-yl)methyl)-1-oxo-3,4-dihydroisoquinolin-2(1H)-yl)methyl)-3-ethoxypicolinonitrile], the IC50 on WDR5 lay in the range of 10 to 1000 nM. The AC50 in experiment [1] fell in the range of 10 to 1000 nM; in the experiment with MV4-11 cells (Homo sapiens, MV4-11, 144 h) it was 10 to 1000 nM.

On to `CCOc1cc([C@H](C)N2CCc3c(cc(CCN(C)CC)cc3-c3cc(C)ncc3F)C2=O)ncc1C#N` [Example 142, (S)-4-ethoxy-6-(1-(7-(2-(ethyl(methyl)amino)ethyl)-5-(5-fluoro-2-methylpyridin-4-yl)-1-oxo-3,4-dihydroisoquinolin-2(1H)-yl)ethyl)nicotinonitrile], for which the IC50 on WDR5 was in the range of 10 to 1000 nM. For the same compound, the AC50 was in the range of 10 to 1000 nM in experiment [1] and 10 to 1000 nM with MV4-11 cells (Homo sapiens, MV4-11, 144 h).

On to `CCOc1cc([C@H](C)N2CCc3c(cc(Cn4cc(C)nc4C)cc3-c3cn(C)nc3C)C2=O)ncc1C#N` [Example 273], for which the IC50 on WDR5 is less than 10 nM. In addition, the AC50 in experiment [1] lay within 10 to 1000 nM; in the experiment on MV4-11 cells (Homo sapiens, MV4-11, 144 h) it was 10 to 1000 nM.

`CCOc1cc([C@H](C)N2CCc3c(CN(C)C4CC4)cc(Cn4ccnc4NC)cc3C2=O)ncc1Cl` [Example 22, (S)-2-(1-(5-chloro-4-ethoxypyridin-2-yl)ethyl)-5-((cyclopropyl(methyl)amino)methyl)-7-((2-(methylamino)-1H-imidazol-1-yl)methyl)-3,4-dihydroisoquinolin-1(2H)-one]: the IC50 on WDR5 was in the range of 10 to 1000 nM. Also, the AC50 in experiment [1] is 10 to 1000 nM; in the experiment on MV4-11 cells (Homo sapiens, MV4-11, 144 h), 10 to 1000 nM.

As for `CCOc1cc(C(C)N2CCc3c(cc(CCN(C)CC)cc3C(O)C(F)(F)F)C2=O)ncc1F` (stereo not drawn) [compound 260], the IC50 on WDR5 was 10 to 1000 nM. Moreover, the AC50 lay within 10 to 1000 nM in experiment [1] and 10 to 1000 nM in the experiment on MV4-11 cells (Homo sapiens, MV4-11, 144 h).

For `CNc1nccn1Cc1cc2c(c(N3CC(OC)C3)c1)CCN([C@@H](C)c1cc(OC)c(F)cn1)C2=O` (single isomer, unassigned) [Example 90], the IC50 at WDR5 lay in the range of 10 to 1000 nM. In addition, the AC50 in experiment [1] was in the range of 10 to 1000 nM; with MV4-11 cells (Homo sapiens, MV4-11, 144 h), 10 to 1000 nM.

As to `CCOc1cc([C@H](C)N2CCc3c(cc(Cn4ccnc4C)cc3-c3cc(C)nn3C)C2=O)ncc1C#N` [Example 280], the IC50 on WDR5 is less than 10 nM. The AC50 in experiment [1] was 10 to 1000 nM; in the experiment with MV4-11 cells (Homo sapiens, MV4-11, 144 h), less than 10 nM.

For the compound `CCOc1cc(C(C)N2CCc3c(cc(Cn4ccnc4C)cc3-c3cn(C)nc3C)C2=O)ncc1C#N` (racemic) [Example 262, 6-(1-(5-(1,3-dimethyl-1H-pyrazol-4-yl)-7-((2-methyl-1H-imidazol-1-yl)methyl)-1-oxo-3,4-dihydroisoquinolin-2(1H)-yl)ethyl)-4-ethoxynicotinonitrile], the IC50 on WDR5 is less than 10 nM. Moreover, the figures for the AC50 (in experiment [1]; with MV4-11 cells) were 10 to 1000 nM and less than 10 nM, respectively.

As for `CCn1nc(CN2CCc3c(cc(Cn4ccnc4NC)cc3C3CC3)C2=O)cc1OC` [Example 86, 5-cyclopropyl-2-((1-ethyl-5-methoxy-1H-pyrazol-3-yl)methyl)-7-((2-(methylamino)-1H-imidazol-1-yl)methyl)-3,4-dihydroisoquinolin-1(2H)-one], on WDR5, the IC50 was in the range of 10 to 1000 nM. Besides, the AC50 lay in the range of 10 to 1000 nM in experiment [1] and 10 to 1000 nM with MV4-11 cells (Homo sapiens, MV4-11, 144 h).

For the compound `CCOc1cc([C@H](C)N2CCc3c(cc(CCN(C)CC)cc3-c3cc(N)cnc3C)C2=O)ncc1C#N` [Example 187, (S)-6-(1-(5-(5-amino-2-methylpyridin-3-yl)-7-(2-(ethyl(methyl)amino)ethyl)-1-oxo-3,4-dihydroisoquinolin-2(1H)-yl)ethyl)-4-ethoxynicotinonitrile], the IC50 at WDR5 is less than 10 nM. For the same compound, the AC50 was 10 to 1000 nM in experiment [1] and 10 to 1000 nM with MV4-11 cells (Homo sapiens, MV4-11, 144 h).

For `CCOc1cc([C@H](C)N2CCc3c(CN4CC[C@H](F)C4)cc(Cn4ccnc4NC)cc3C2=O)ncc1F` [Example 37, 2-((S)-1-(4-ethoxy-5-fluoropyridin-2-yl)ethyl)-5-(((S)-3-fluoropyrrolidin-1-yl)methyl)-7-((2-(methylamino)-1H-imidazol-1-yl)methyl)-3,4-dihydroisoquinolin-1(2H)-one], on WDR5, the IC50 lay in the range of 10 to 1000 nM. Further, the AC50 fell in the range of 10 to 1000 nM in experiment [1] and 10 to 1000 nM with MV4-11 cells (Homo sapiens, MV4-11, 144 h).

As for `CCOc1cc([C@H](C)N2CCc3c(cc(CCN(C)CC)cc3-c3cn(CC)nc3C(F)F)C2=O)ncc1C#N` [Example 165, (S)-6-(1-(5-(3-(difluoromethyl)-1-ethyl-1H-pyrazol-4-yl)-7-(2-(ethyl(methyl)amino)ethyl)-1-oxo-3,4-dihydroisoquinolin-2(1H)-yl)ethyl)-4-ethoxynicotinonitrile], at WDR5, the IC50 was less than 10 nM. Further, the AC50 in experiment [1] is 10 to 1000 nM; in the experiment on MV4-11 cells (Homo sapiens, MV4-11, 144 h), 10 to 1000 nM.

Regarding `CCOc1cc([C@H](C)N2CCc3c(cc(CCN(C)CC)cc3-c3ccc(N)nc3C(F)(F)F)C2=O)ncc1C#N` [Example 198, (S)-6-(1-(5-(6-amino-2-(trifluoromethyl)pyridin-3-yl)-7-(2-(ethyl(methyl)amino)ethyl)-1-oxo-3,4-dihydroisoquinolin-2(1H)-yl)ethyl)-4-ethoxynicotinonitrile], the IC50 on WDR5 is 10 to 1000 nM. The AC50 in experiment [1] was 10 to 1000 nM; in the experiment on MV4-11 cells (Homo sapiens, MV4-11, 144 h), less than 10 nM.

With `CCOc1cc([C@H](C)N2CCc3c(cc(CCN(C)CC)cc3-c3c(OC)ccnc3C)C2=O)ncc1C#N` [Example 191, 4-ethoxy-6-((1S)-1-(7-(2-(ethyl(methyl)amino)ethyl)-5-(4-methoxy-2-methylpyridin-3-yl)-1-oxo-3,4-dihydroisoquinolin-2(1H)-yl)ethyl)nicotinonitrile], on WDR5, the IC50 is less than 10 nM. Further, the AC50 in experiment [1] lay in the range of 10 to 1000 nM; in the experiment on MV4-11 cells (Homo sapiens, MV4-11, 144 h), 10 to 1000 nM.

On to `CCOc1cc([C@H](C)N2CCc3c(cc(CCN(C)CC)cc3-c3ccnc(F)c3C)C2=O)ncc1C#N` [Example 117, (S)-4-ethoxy-6-(1-(7-(2-(ethyl(methyl)amino)ethyl)-5-(2-fluoro-3-methylpyridin-4-yl)-1-oxo-3,4-dihydroisoquinolin-2(1H)-yl)ethyl)nicotinonitrile], for which the IC50 at WDR5 was less than 10 nM. Besides, the AC50 was in the range of 10 to 1000 nM in experiment [1] and 10 to 1000 nM in the experiment with MV4-11 cells (Homo sapiens, MV4-11, 144 h).

As to `CCOc1cc([C@H](C)N2CCc3c(cc(Cn4ccnc4C)cc3-n3nc(C)nc3C)C2=O)ncc1C#N` (single isomer, unassigned) [Example 265], the IC50 on WDR5 is less than 10 nM. Also, the AC50 in experiment [1] was in the range of 10 to 1000 nM; in the experiment with MV4-11 cells (Homo sapiens, MV4-11, 144 h), 10 to 1000 nM.

For `CCOc1cc(CN2CCc3c(cc(CCN(C)CC)cc3-c3ccc(F)nc3C)C2=O)ncc1F` [Example 132, 2-((4-ethoxy-5-fluoropyridin-2-yl)methyl)-7-(2-(ethyl(methyl)amino)ethyl)-5-(6-fluoro-2-methylpyridin-3-yl)-3,4-dihydroisoquinolin-1(2H)-one], at WDR5, the IC50 was less than 10 nM. Further, the AC50 in experiment [1] lay within 10 to 1000 nM; with MV4-11 cells (Homo sapiens, MV4-11, 144 h), 10 to 1000 nM.

For `CCOc1cc([C@H](C)N2CCc3c(cc(CCN(C)CC(C)O)cc3-c3ccc(F)nc3C)C2=O)ncc1C#N` (stereo partly drawn) [Example 242], the IC50 on WDR5 lay within 10 to 1000 nM. Moreover, the AC50 was in the range of 10 to 1000 nM in experiment [1] and 10 to 1000 nM in the experiment with MV4-11 cells (Homo sapiens, MV4-11, 144 h).

Consider `CNc1nccn1Cc1cc2c(c(-c3cc(CO)cnc3Cl)c1)CCN(Cc1ccc(F)c(OC)c1)C2=O` [Example 53, 5-(2-chloro-5-(hydroxymethyl)pyridin-3-yl)-2-(4-fluoro-3-methoxybenzyl)-7-((2-(methylamino)-1H-imidazol-1-yl)methyl)-3,4-dihydroisoquinolin-1(2H)-one], for which the IC50 at WDR5 is 10 to 1000 nM. Besides, the AC50 in experiment [1] lay in the range of 10 to 1000 nM; in the experiment on MV4-11 cells (Homo sapiens, MV4-11, 144 h), 10 to 1000 nM.

Turning to `CCOc1cc([C@H](C)N2CCc3c(cc(CCN(C)CC)cc3-c3cn(CC)c(=O)cc3C)C2=O)ncc1C#N` [Example 171, (S)-4-ethoxy-6-(1-(7-(2-(ethyl(methyl)amino)ethyl)-5-(1-ethyl-4-methyl-6-oxo-1,6-dihydropyridin-3-yl)-1-oxo-3,4-dihydroisoquinolin-2(1H)-yl)ethyl)nicotinonitrile], the IC50 at WDR5 is less than 10 nM. For the same compound, the AC50 in experiment [1] is 10 to 1000 nM; with MV4-11 cells (Homo sapiens, MV4-11, 144 h) it was 10 to 1000 nM.

Consider `CNc1nccn1Cc1cc2c(c(-c3cn(C)nc3C#N)c1)CCN(Cc1ccc(F)c(OC)c1)C2=O` [Example 77, 4-(2-(4-fluoro-3-methoxybenzyl)-7-((2-(methylamino)-1H-imidazol-1-yl)methyl)-1-oxo-1,2,3,4-tetrahydroisoquinolin-5-yl)-1-methyl-1H-pyrazole-3-carbonitrile], for which the IC50 on WDR5 lay in the range of 10 to 1000 nM. Moreover, the AC50 in experiment [1] fell in the range of 10 to 1000 nM; in the experiment with MV4-11 cells (Homo sapiens, MV4-11, 144 h) it was 10 to 1000 nM.
